Source: patent US12134620B2 (ARAXES PHARMA LLC, priority 2018, dated 2024)

Target: T1, KRAS G12C 1-169, his-tagged protein, GDP-loaded (Homo sapiens, UniProt P01116, G12C)
T1 construct: KRAS G12C 1-169, his-tagged protein, GDP-loaded; His tag
Test: Biochemical assay: covalent modification of KRAS G12C, analysed by mass spectrometry (RapidFire/TOF or Q-Exactive); note: time not given here
Type: binding
Conditions: Modification activity, modification percentage from MS peak intensities
Procedure, shortened: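 GDP-loaded His-tagged KRAS G12C 1-169 (2 μM or 0.5 μM in 20 mM Hepes, 150 mM NaCl, 1 mM MgCl2) reacted with compound at 32 μM or 8 μM final (2% DMSO) for a set time, then quenched with formic acid. Percent covalent modification from deconvoluted intact-protein MS peak intensities (RapidFire/TOF or LC-Q Exactive).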

**Q.** C=CC(=O)N1CC2(CCN(c3nc(N4CCC5(CCN(C)C5)C4)nc(-c4c(C)ccc5[nH]ncc45)c3C#N)C2)C1 (stereo not shown) [Compound I-77, 4-(2-acryloyl-2,6-diazaspiro[3.4]octan-6-yl)-6-(5-methyl-1H-indazol-4-yl)-2-(7-methyl-2,7-diazaspiro[4.4]nonan-2-yl)pyrimidine-5-carbonitrile] was tested. Which Binding % did it give?
**A.** +++ (+++ indicates binding activity greater than 85%)

**Q.** For C=CC(=O)N1CC2(CCN(c3nc(N4CCOCC4)nc(-c4c(C)ccc5[nH]nc(C)c45)c3C#N)C2)C1 [Compound I-78, 4-(2-acryloyl-2,6-diazaspiro[3.4]octan-6-yl)-6-(3,5-dimethyl-1H-indazol-4-yl)-2-morpholinopyrimidine-5-carbonitrile], which Binding % is on record?
**A.** +++ (+++ indicates binding activity greater than 85%)

**Q.** For C=CC(=O)N1CC2(CCN(c3nc(N4CCOCC4)nc(-c4c(C)ccc5c4cnn5C)c3C#N)C2)C1 [Compound I-79, 4-(2-acryloyl-2,6-diazaspiro[3.4]octan-6-yl)-6-(1,5-dimethyl-1H-indazol-4-yl)-2-morpholinopyrimidine-5-carbonitrile], which Binding % is on record?
**A.** + (+ indicates binding activity greater than 0% and up to 50%)

**Q.** How did the Binding % turn out when C=CC(=O)N1CC2(CCN(c3nc(N4CCOCC4)nc(-c4cc(O)cc5ccccc45)c3C#N)C2)C1 [Compound I-80, 4-(2-acryloyl-2,6-diazaspiro[3.4]octan-6-yl)-6-(3-hydroxynaphthalen-1-yl)-2-morpholinopyrimidine-5-carbonitrile] was run?
**A.** +++ (+++ indicates binding activity greater than 85%)

**Q.** For C=CC(=O)N1CC2(CCN(c3nc(OC[C@@H]4CN(C)CCO4)nc(-c4c(C)ccc5[nH]ncc45)c3C#N)C2)C1 [Compound I-81, 4-(2-acryloyl-2,6-diazaspiro[3.4]octan-6-yl)-6-(5-methyl-1H-indazol-4-yl)-2-(((S)-4-methylmorpholin-2-yl)methoxy)pyrimidine-5-carbonitrile], which Binding % is on record?
**A.** +++ (+++ indicates binding activity greater than 85%)

**Q.** How did the Binding % turn out when C=CC(=O)N1CC2(CCN(c3nc(OC[C@@H]4CCCN4C)nc(-c4c(C)ccc5cn[nH]c45)c3C#N)C2)C1 [Compound I-82, 4-(2-acryloyl-2,6-diazaspiro[3.4]octan-6-yl)-6-(6-methyl-1H-indazol-7-yl)-2-(((S)-1-methylpyrrolidin-2-yl)methoxy)pyrimidine-5-carbonitrile] was run?
**A.** + (+ indicates binding activity greater than 0% and up to 50%)

**Q.** How did the Binding % turn out when C/C=C/C(=O)N1CC2(CCN(c3nc(N4CCOCC4)nc(-c4c(C)ccc5[nH]ncc45)c3C#N)C2)C1 [Compound I-83, (E)-4-(2-(but-2-enoyl)-2,6-diazaspiro[3.4]octan-6-yl)-6-(5-methyl-1H-indazol-4-yl)-2-morpholinopyrimidine-5-carbonitrile] was run?
**A.** + (+ indicates binding activity greater than 0% and up to 50%)

**Q.** With CC#CC(=O)N1CC2(CCN(c3nc(N4CCOCC4)nc(-c4c(C)ccc5[nH]ncc45)c3C#N)C2)C1 [Compound I-84, 4-(2-(but-2-ynoyl)-2,6-diazaspiro[3.4]octan-6-yl)-6-(5-methyl-1H-indazol-4-yl)-2-morpholinopyrimidine-5-carbonitrile] as the compound, how does the Binding % read?
**A.** + (+ indicates binding activity greater than 0% and up to 50%)

**Q.** Cc1ccc2[nH]ncc2c1-c1nc(N2CCOCC2)nc(N2CCC3(CN(C(=O)/C=C/CN(C)C)C3)C2)c1C#N [Compound I-85, (E)-4-(2-(4-(dimethylamino)but-2-enoyl)-2,6-diazaspiro[3.4]octan-6-yl)-6-(5-methyl-1H-indazol-4-yl)-2-morpholinopyrimidine-5-carbonitrile] was tested. Which Binding % did it give?
**A.** + (+ indicates binding activity greater than 0% and up to 50%)

**Q.** Which Binding % does the source give for C=CC(=O)N1CC2(CCN(c3nc(OCCCN(C)C)nc(-c4c(C)ccc5[nH]ncc45)c3C#N)CC2)C1 [Compound I-86, 4-(2-acryloyl-2,7-diazaspiro[3.5]nonan-7-yl)-2-(3-(dimethylamino)pro-poxy)-6-(5-methyl-1H-indazol-4-yl)pyrimidine-5-carbonitrile] here?
**A.** ++ (++ indicates binding activity from 50 to 85%)
